Reference: US20240317735A1, “HYDROISOQUINOLINE OR HYDRONAPHTHYRIDINE COMPOUNDS FOR THE TREATMENT OF AUTOIMMUNE DISEASE” (Hoffmann-La Roche Inc., priority 2020, published 2024)

Columns and labels:
TLR9 = biological target: T1, TLR9 (Homo sapiens, UniProt Q9NR96); assay: Human PBMC cell-based assay (CpG ODN 2216 stimulation); design: These cells express TLR7, TLR8, or TLR9, and therefore are natural responders to respective ligand stimulation; endogenous in cells; host or cells: human PBMC from healthy donor whole blood; conditions: CpG ODN 2216 at 1 μM, overnight, read-out: hPBMC/TLR9 IC50
T1 sequence (Q9NR96 26-1032): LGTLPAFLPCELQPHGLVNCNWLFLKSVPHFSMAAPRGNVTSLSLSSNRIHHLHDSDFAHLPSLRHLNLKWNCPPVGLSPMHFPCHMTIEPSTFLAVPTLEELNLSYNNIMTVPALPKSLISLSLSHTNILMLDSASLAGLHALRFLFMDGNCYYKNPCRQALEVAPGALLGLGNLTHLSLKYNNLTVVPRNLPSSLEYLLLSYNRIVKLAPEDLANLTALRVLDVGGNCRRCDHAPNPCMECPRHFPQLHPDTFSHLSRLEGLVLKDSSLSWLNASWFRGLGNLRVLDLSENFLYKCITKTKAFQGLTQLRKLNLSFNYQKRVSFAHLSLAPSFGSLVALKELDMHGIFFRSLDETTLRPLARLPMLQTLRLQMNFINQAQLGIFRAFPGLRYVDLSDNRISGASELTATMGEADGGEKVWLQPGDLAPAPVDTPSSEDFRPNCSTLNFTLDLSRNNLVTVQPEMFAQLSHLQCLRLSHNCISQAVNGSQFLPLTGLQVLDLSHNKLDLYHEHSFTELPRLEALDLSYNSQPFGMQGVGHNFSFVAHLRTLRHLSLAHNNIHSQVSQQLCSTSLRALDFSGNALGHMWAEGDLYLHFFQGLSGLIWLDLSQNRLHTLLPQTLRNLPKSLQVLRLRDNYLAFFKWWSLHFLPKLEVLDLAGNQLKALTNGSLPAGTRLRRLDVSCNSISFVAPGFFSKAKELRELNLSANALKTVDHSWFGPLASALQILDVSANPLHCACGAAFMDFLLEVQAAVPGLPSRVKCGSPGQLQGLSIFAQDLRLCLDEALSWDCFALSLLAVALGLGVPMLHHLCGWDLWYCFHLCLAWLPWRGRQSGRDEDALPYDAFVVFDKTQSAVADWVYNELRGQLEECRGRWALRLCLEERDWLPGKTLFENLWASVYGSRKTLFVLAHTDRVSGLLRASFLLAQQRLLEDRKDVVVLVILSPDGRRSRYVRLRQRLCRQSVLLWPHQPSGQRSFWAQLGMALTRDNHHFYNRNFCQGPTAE
Description: Unlike the HEK reporter cell lines, human peripheral blood mononuclear cell (PBMC) represents primary human immune cells in blood mainly consisting of lymphocytes, monocytes, and dendritic cells. These cells express TLR7, TLR8, or TLR9, and therefore are natural responders to respective ligand stimulation. Upon activation of these TLRs, PBMCs secrete similar cytokines and chemokines in vitro and in vivo, and therefore the in vitro potency of a TLR7/8/9 antagonist in human PBMC is readily translatable to its pharmacodynamics response in vivo.
Human peripheral blood mononuclear cells (PBMC) were isolated from freshly-drawn lithium-heparinized (Lithium Heparin Plus blood Collection tube, BD Vacutainer®) healthy donor whole blood by density gradient (Ficoll-Paque™ PLUS, GE Healthcare life Sciences). Briefly, 50 mL of blood was diluted with 25 mL PBS (without Ca^2+, Mg^2+) in a 50 mL conical tube with porous barrier (Leucosep tube, Greiner bio-one), where 15.5 mL Ficoll-Paque was under laid after spinning. Tubes were centrifuged for 20 minutes at 800×g (1946 rpm) with the brake in the off position, and PBMC were collected from the buffy coat. Cells were then washed twice in PBS, and red blood cells were lysed by suspension in 2 mL (Red Blood Cell Lysis Buffer, Alfa Aesar) for 5-10 minutes at room temperature. After a final wash in PBS, PBMC were resuspended at a final concentration of 2×10^6 cells/mL in RPMI-1640 media with GlutaMAX™ (Gibco) supplemented with 10% Fetal Bovine Serum (Sigma) and plated at 150 μL/well (3×10^5 cells/well) in tissue culture treated round bottom 96-well plates (Corning Incorporated). Antagonist compounds (compounds of this invention) solubilized and serial diluted in 100% DMSO were added in duplicate to cells to yield a final concentration of 1% DMSO (v/v). PBMC were incubated with antagonist compounds for 30 minutes at 37° C., 5% CO2 before adding various TLR agonist reagents in 48 μL complete media per well as follows (final concentrations indicated): CpG ODN 2216 (InvivoGen) at 1 μM for TLR9, ORN 06/LyoVec (InvivoGen) at […] for TLR8 and R848 (InvivoGen) at 1p g/mL for TLR7 and TLR8. PBMC were incubated overnight at 37° C. with 5% CO2. Cell culture supernatants were collected, and levels of various human cytokines were assessed by Luminex assay (ProcartaPlex™ Multiplex Immunoassay, Invitrogen) or ELISA procedure according to the manufacturer's recommended protocol (eBioscience, ThermoFisher Scientific). Viability of the cells was also checked with Cell Viability Assay (CellTiter Glo®Luminescent Cell Viability Assay, Promega).

hERG channel = biological target: T2, hERG channel (Homo sapiens, UniProt Q12809); assay: hERG channel inhibition assay (patch-clamp, CHOhERG cells); assay type: cell-based; conditions: for IC50 / IC20: CHOhERG cells, whole-cell patch-clamp; for IC20: human, CHO cells stably expressing hERG (CHOhERG); for hERG IC20/TLR7 IC50 / hERG IC20/TLR8 IC50 / hERG IC20/TLR9 IC50: safety ratio; for hERG IC20/TLR7 IC50: hERG IC20 over HEK/hTLR7 IC50; for hERG IC20/TLR8 IC50: hERG IC20 over HEK/hTLR8 IC50; for hERG IC20/TLR9 IC50: hERG IC20 over HEK/hTLR9 IC50
T2 construct: expressed in transfected cells; host or cells: CHO (CHOhERG)
Description: The hERG K^+ channels were cloned in humans and stably expressed in a CHO (Chinese hamster ovary) cell line. CHOhERG cells were used for patch-clamp (voltage-clamp, whole-cell) experiments. Cells were stimulated by a voltage pattern to activate hERG channels and conduct IKhERG currents (rapid delayed outward rectifier potassium current of the hERG channel). After the cells were stabilized for a few minutes, the amplitude and kinetics of IKhERG were recorded at a stimulation frequency of 0.1 Hz (6 bpm). Thereafter, the test compound was added to the preparation at increasing concentrations. For each concentration, an attempt was made to reach a steady-state effect, usually, this was achieved within 3-10 min at which time the next highest concentration was applied. The amplitude and kinetics of IKhERG are recorded in each concentration of the drug which were compared to the control values (taken as 100%). (references: Redfern W S, Carlsson L, Davis A S, Lynch W G, MacKenzie I, Palethorpe S, Siegl P K, Strang I, Sullivan A T, Wallis R, Camm A J, Hammond T G. 2003; Relationships between preclinical cardiac electrophysiology, clinical QT interval prolongation and torsade de pointes for a broad range of drugs: evidence for a provisional safety margin in drug development. Cardiovasc. Res. 58:32-45, Sanguinetti MC, Tristani-Firouzi M. 2006; hERG potassium channels and cardiac arrhythmia. Nature 440:463-469, Webster R, Leishman D, Walker D. 2002; Towards a drug concentration effect relationship for QT prolongation and torsades de pointes. Curr. Opin. Drug Discov. Devel. 5:116-26).

T2 sequence (Q12809 whole entry): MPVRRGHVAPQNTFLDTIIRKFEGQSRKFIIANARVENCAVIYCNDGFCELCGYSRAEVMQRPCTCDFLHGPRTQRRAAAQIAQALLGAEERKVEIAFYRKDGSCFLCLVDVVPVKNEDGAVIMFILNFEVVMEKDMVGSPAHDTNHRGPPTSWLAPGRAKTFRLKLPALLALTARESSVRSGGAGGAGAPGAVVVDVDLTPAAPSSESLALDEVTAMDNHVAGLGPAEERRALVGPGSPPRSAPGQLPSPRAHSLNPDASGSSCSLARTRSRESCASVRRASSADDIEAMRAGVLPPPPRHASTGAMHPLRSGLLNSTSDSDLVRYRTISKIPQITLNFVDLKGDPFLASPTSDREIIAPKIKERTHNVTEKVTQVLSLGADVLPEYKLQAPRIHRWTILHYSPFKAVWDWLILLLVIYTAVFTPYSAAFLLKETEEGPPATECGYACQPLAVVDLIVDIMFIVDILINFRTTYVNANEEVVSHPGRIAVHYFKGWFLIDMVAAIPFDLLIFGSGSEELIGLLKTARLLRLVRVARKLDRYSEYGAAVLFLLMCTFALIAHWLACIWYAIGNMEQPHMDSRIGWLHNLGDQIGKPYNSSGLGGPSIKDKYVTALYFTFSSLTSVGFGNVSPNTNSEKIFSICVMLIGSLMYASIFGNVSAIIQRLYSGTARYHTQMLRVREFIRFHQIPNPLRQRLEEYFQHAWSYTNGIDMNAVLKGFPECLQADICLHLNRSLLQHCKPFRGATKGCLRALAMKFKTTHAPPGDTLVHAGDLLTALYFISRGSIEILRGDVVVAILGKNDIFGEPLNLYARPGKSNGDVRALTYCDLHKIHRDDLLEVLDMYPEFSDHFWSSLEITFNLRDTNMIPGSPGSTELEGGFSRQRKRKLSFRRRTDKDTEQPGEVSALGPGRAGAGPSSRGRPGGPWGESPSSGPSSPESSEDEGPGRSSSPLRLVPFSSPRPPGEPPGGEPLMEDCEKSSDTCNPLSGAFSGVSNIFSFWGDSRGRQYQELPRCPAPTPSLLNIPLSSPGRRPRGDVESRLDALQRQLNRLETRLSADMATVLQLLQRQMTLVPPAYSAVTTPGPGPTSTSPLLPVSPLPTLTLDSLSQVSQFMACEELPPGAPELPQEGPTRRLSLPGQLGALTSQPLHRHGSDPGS

SMILES	IC50 (TLR9)	IC50 (hERG channel)	IC20 (hERG channel)	hERG IC20/TLR7 IC50 (hERG channel)	hERG IC20/TLR8 IC50 (hERG channel)	hERG IC20/TLR9 IC50 (hERG channel)
CO[C@@H]1CN(c2ccc3c(n2)[C@@H](C)CN(c2cc(C)nc4c2cnn4C)C3)C[C@H]1N [Example 63, (3R,4R)-4-methoxy-1-[(8S)-6-(1,6-dimethylpyrazolo[3,4-b]pyridin-4-yl)-8-methyl-7,8-dihydro-5H-1,6-naphthyridin-2-yl]pyrrolidin-3-amine]	430 nM					
C[C@H]1CN(c2ccnc3c2cnn3C)Cc2ccc(OC[C@@H]3CNCCN3)cc21 [Example 19, (4R)-4-methyl-2-(1-methylpyrazolo[3,4-b]pyridin-4-yl)-6-[[(2S)-piperazin-2-yl]methoxy]-3,4-dihydro-1H-isoquinoline]	395 nM	> 20000 nM	6300 nM	787.5	1575.0	62.4
C[C@H]1CN(c2ccnc3c2cnn3C)Cc2ccc(OC[C@H]3CNCCN3)cc21 [Example 18, (4R)-4-methyl-2-(1-methylpyrazolo[3,4-b]pyridin-4-yl)-6-[[(2R)-piperazin-2-yl]methoxy]-3,4-dihydro-1H-isoquinoline]	365 nM	> 20000 nM	> 10000 nM	>1250.0	>2500.0	>90.1
CO[C@H]1CN(c2ccc3c(n2)[C@@H](C)CN(c2cc(C)nc4c2cnn4C)C3)CC[C@@H]1N [Example 65, (3S,4S)-3-methoxy-1-[(8S)-6-(1,6-dimethylpyrazolo[3,4-b]pyridin-4-yl)-8-methyl-7,8-dihydro-5H-1,6-naphthyridin-2-yl]piperidin-4-amine]	371 nM					
C[C@H]1CN(c2ccnc3c2cnn3C)Cc2ccc(N3CCN(c4cc5c(cn4)CCNC5)CC3)cc21 [Example 9, 7-[4-[(4R)-4-methyl-2-(1-methylpyrazolo[3,4-b]pyridin-4-yl)-3,4-dihydro-1H-isoquinolin-6-yl]piperazin-1-yl]-1,2,3,4-tetrahydro-2,6-naphthyridine]	326 nM					
C[C@H]1CN(c2ccnc3c2cnn3C)Cc2ccc(N3CCNCC3)cc21 [Example 1, (4R)-4-methyl-2-(1-methylpyrazolo[3,4-b]pyridin-4-yl)-6-piperazin-1-yl-3,4-dihydro-1H-isoquinoline]	396 nM	> 20000 nM	6400 nM	2133.3	3200.0	32.3
C[C@H]1CN(c2ccnc3c2cnn3C)Cc2ccc(N3CCN[C@@H](CO)C3)cc21 [Example 50, [(2R)-4-[(4R)-4-methyl-2-(1-methylpyrazolo[3,4-b]pyridin-4-yl)-3,4-dihydro-1H-isoquinolin-6-yl]piperazin-2-yl]methanol]	475 nM					

Compounds with a lower IC50 (TLR9), results first:

IC50 (TLR9)	SMILES	IC50 (hERG channel)	IC20 (hERG channel)	hERG IC20/TLR7 IC50 (hERG channel)	hERG IC20/TLR8 IC50 (hERG channel)	hERG IC20/TLR9 IC50 (hERG channel)
290 nM	Cc1cc(N2Cc3ccc(N4C[C@@H](N)[C@H](O)C4)cc3[C@@H](C)C2)c2cnn(C)c2n1 [Example 47, trans-4-amino-1-[(4R)-2-(1,6-dimethylpyrazolo[3,4-b]pyridin-4-yl)-4-methyl-3,4-dihydro-1H-isoquinolin-6-yl]pyrrolidin-3-ol]					
286 nM	C[C@H]1CN(c2ccnc3c2cnn3C)Cc2ccc(OC3CN(C4CCNCC4)C3)cc21 [Example 41, (4R)-4-methyl-2-(1-methylpyrazolo[3,4-b]pyridin-4-yl)-6-[1-(4-piperidyl)azetidin-3-yl]oxy-3,4-dihydro-1H-isoquinoline]	> 20000 nM	5100 nM	728.6	637.5	108.5
277 nM	Cc1cc(N2Cc3ccc(N4CCC(N)CC4)nc3[C@@H](C)C2)c2cnn(C)c2n1 [Example 58, 1-[(8S)-6-(1,6-dimethylpyrazolo[3,4-b]pyridin-4-yl)-8-methyl-7,8-dihydro-5H-1,6-naphthyridin-2-yl]piperidin-4-amine]					
271 nM	C[C@H]1CN(c2ccnc3c2cnn3C)Cc2ccc(N3CCC(N4CC(N)C4)CC3)cc21 [Example 28, 1-[1-[(4R)-4-methyl-2-(1-methylpyrazolo[3,4-b]pyridin-4-yl)-3,4-dihydro-1H-isoquinolin-6-yl]-4-piperidyl]azetidin-3-amine]					
265 nM	CC1CN(c2ccnc3c2cnn3C)Cc2ccc(N3CCC4(CCNCC4)CC3)cc21 (centres unmarked) [Example 4, 3-[4-methyl-2-(1-methylpyrazolo[3,4-b]pyridin-4-yl)-3,4-dihydro-1H-isoquinolin-6-yl]-3,9-diazaspiro[5.5]undecane]					
250 nM	Cc1cc(N2Cc3cnc(N4CCNCC4)cc3[C@@H](C)C2)c2cnn(C)c2n1 [Example 74, (4R)-2-(1,6-dimethylpyrazolo[3,4-b]pyridin-4-yl)-4-methyl-6-piperazin-1-yl-3,4-dihydro-1H-2,7-naphthyridine]					
240 nM	CO[C@@H]1CN(c2ccc3c(c2)[C@@H](C)CN(c2cc(C)nc4c2cnn4C)C3)C[C@H]1N [Example 23, (3R,4R)-4-methoxy-1-[(4R)-2-(1,6-dimethylpyrazolo[3,4-b]pyridin-4-yl)-4-methyl-3,4-dihydro-1H-isoquinolin-6-yl]pyrrolidin-3-amine]					
156 nM	Cc1cc(N2Cc3ccc(N4CCC5(CCNCC5)CC4)cc3C(C)C2)c2cnn(C)c2n1 (centres unmarked) [Example 5, 3-[2-(1,6-dimethylpyrazolo[3,4-b]pyridin-4-yl)-4-methyl-3,4-dihydro-1H-isoquinolin-6-yl]-3,9-diazaspiro[5.5]undecane]					
